Laboratory results as given in patent publication US8153803B2, “Compositions and methods for modulating sirtuin activity” (The General Hospital Corporation, priority 2006, dated 2012).

How the values were obtained:
[1] = molecular target: T1, SIRT1 (Homo sapiens, UniProt Q96EB6); experiment: Fluorescent SIRT enzyme assay (recombinant enzyme, fluorescent peptide substrate); type: biochemical; conditions: at compound concentrations of 40 μM or higher
T1 sequence (Q96EB6 1-747): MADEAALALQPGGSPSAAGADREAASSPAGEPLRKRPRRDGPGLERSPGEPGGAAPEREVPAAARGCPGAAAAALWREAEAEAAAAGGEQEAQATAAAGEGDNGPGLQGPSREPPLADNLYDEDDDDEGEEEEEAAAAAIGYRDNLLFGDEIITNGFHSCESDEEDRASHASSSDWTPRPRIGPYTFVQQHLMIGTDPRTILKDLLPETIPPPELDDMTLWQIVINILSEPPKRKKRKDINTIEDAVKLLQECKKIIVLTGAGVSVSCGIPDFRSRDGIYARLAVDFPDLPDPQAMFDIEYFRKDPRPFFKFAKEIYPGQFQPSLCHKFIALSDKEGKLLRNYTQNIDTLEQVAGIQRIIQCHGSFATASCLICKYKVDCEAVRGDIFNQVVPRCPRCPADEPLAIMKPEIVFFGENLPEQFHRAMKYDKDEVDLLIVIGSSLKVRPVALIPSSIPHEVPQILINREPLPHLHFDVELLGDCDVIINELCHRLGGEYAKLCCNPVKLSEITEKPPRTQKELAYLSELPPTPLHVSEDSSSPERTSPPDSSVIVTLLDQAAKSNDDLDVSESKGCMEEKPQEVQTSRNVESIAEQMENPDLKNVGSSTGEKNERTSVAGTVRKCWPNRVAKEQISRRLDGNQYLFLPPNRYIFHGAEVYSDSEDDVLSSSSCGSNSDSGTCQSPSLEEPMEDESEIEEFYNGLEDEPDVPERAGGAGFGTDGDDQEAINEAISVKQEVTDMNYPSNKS

[2] = system: H4 neuroglioma cells transfected with α-synuclein; experiment: α-Synuclein toxicity assay (adenylate kinase release, ToxiLight); type: cell-based, human; conditions: H4 cells overexpressing α-synuclein
Description: Cell culture and transfection: HeLa cells were cultured in DMEM supplemented with 10% fetal bovine serum (FBS) and 2 mM L-glutamine. Human H4 neuroglioma cells (“H4 cells” HTB-148 from the American Type Culture Collection (ATCC), Manassas, Va., USA) were maintained in OPTI-MEM (Life Technologies, Grand Island, N.Y., USA) supplemented with 10% FBS. H4 cells were passaged 24 hours prior to transfection and plated in 24-well plates. The cells were transfected, using a pcDNA3.1hygro vector (Invitrogen) and […] (Qiagen, Chatsworth, Calif., USA) according to the manufacturer's instructions. Compounds or DMSO were added after the transfection procedure was concluded.
α-Synuclein toxicity assay: Toxicity was analyzed 24 hours after transfection by measuring the release of adenyate kinase from damaged cells into the culture medium using the ToxiLight™ kit (Cambrex, Walkersville, Md.) according to the manufaturer's protocol.

[3] = system: HeLa cells; experiment: Cell-based SIRT2 inhibition (α-tubulin acetylation, Western blot); parameters: species or system human
Description: Tubulin and sirtuin Western blot analysis: Samples were separated on 10% polyacrylamide gels and transferred to a 0.45 μm PVDF membrane (Millipore, Bedford Mass.). Membranes were blocked with a 5% milk solution in PBST. Blots were then probed with antibodies to either SIRT2 (Santa Cruz A-5 at 1:100), tubulin (Sigma, St. Louis Mo., B-5-1-2) or acetylated tubulin (Sigma, 6-11B-1), both at 1:5000. Secondary detection was performed using an HRP-conjugated anti-mouse antibody (Sigma) at 1:4000, and exposed using an ECL detection kit (PerkinElmer). […] The following morning, medium was removed and fresh medium containing compound was added to the wells. After 3 hours, medium was removed and cells were washed 3× with PBS. After the final wash, 100 μL of a hypotonic lysis buffer was added to each well, and the cells were lysed at 37° C. for 5 minutes. The lysates were transferred to eppendorf tubes and centrifuged at 16,000×g for 10 minutes at room temperature. The resulting supernatant contained soluble tubulin monomers, while the pellet contained the insoluble microtubule polymers. […] SDS sample buffer was added to all the samples, followed by Western blot analysis.

[4] = system: α-synuclein aggregates; experiment: α-Synuclein aggregation phenotype in cells; type: cell-based; conditions: correlated with functional rescue
[5] = system: α-synuclein aggregates; conditions: previously identified (WO 05/087217); cited from earlier work
[6] = system: H4 neuroglioma cells transfected with α-synuclein; conditions: previously identified (WO 05/087217); cited from earlier work
[7] = molecular target: T2, SIRT2 (Homo sapiens, UniProt Q8IXJ6); experiment: Fluorescent SIRT enzyme assay (recombinant enzyme, fluorescent peptide substrate); type: biochemical
T2 construct: purchased Biomol (Plymouth Meeting, Pa.)
T2 sequence (Q8IXJ6 1-389): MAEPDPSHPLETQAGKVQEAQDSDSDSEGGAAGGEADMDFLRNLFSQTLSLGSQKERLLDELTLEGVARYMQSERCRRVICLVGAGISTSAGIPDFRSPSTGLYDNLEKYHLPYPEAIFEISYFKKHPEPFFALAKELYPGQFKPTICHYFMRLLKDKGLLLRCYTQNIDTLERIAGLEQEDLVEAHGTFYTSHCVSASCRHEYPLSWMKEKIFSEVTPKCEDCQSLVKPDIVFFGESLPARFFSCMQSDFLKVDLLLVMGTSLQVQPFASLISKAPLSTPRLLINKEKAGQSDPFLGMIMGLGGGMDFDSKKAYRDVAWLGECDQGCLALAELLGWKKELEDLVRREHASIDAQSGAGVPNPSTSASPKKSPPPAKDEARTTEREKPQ

Row | inhibition of SIRT1 [1] | IC50 ([7]; recombinant SIRT2, fluorescent peptide substrate, read-out: IC50 against SIRT2) [µM] | selectivity for SIRT2 ([7]; versus other sirtuins tested (SIRT1, SIRT3)) | Compound | rescue of α-synuclein toxicity [2] | acetylation of α-tubulin in compound-treated cells [3] | α-synuclein aggregates / inclusion size [4] | α-synuclein aggregates / inclusions [5] | inhibition of α-synuclein-mediated cellular toxicity [6]
1 | slightly inhibits |  |  | N#C/C(=C\c1ccc(-c2cc(Cl)ccc2Cl)o1)C(=O)Nc1cccc2ncccc12 [AGK2] | can rescue α-synuclein toxicity | increasing the acetylation of α-tubulin | formation of large inclusions, while reducing number of small aggregates |  | 
2 |  |  |  | O=C(Nc1cccc([N+](=O)[O-])c1)c1cccc(S(=O)(=O)N2CCCCCC2)c1 [AK-1, 3-(azepane-1-sulfonyl)-N-(3-nitro-phenyl)-benzamide] | prevented some α-synuclein toxicity |  | increased inclusion size |  | 
3 |  | 35 | selective inhibition of SIRT2 | O=[N+]([O-])c1ccc(Sc2nnc(COc3ccccc3)n2-c2ccccc2)c2cccnc12 [B2] |  |  |  | decrease in the number of small α-synuclein aggregates and the formation of large inclusions | inhibits α-synuclein-mediated cellular toxicity
